Measured values reported in ChEMBL document CHEMBL3217545, “Synthesis and study of 2-acetyl amino-3-[4-(2-amino-5-sulfo-phenylazo)-phenyl]-propionic acid: a new class of inhibitor for hen egg white lysozyme amyloidogenesis” (Medchemcomm, 2013).
The source made the active and inactive calls. The calls are words filed in the database; no cut-off is given here.

Columns and labels:
[1] = biological target: Lysozyme C (Gallus gallus) (UniProt P00698); assay: Inhibition of beta-sheet aggregation of hen egg white lysozyme at 2 x 10^-4 M after 15 days by FT-IR spectroscopic analysis
[2] = Cytotoxicity against neuronal cells (unknown origin) by MTT assay; format: cell-based; conditions: neuron
[3] = biological target: Lysozyme C (Gallus gallus) (UniProt P00698); assay: Binding affinity to hen egg white lysozyme at 2 x 10^-4 M by fluorescence spectroscopic analysis
[4] = biological target: Lysozyme C (Gallus gallus) (UniProt P00698); assay: Inhibition of hen egg white lysozyme fibrillization at 2 x 10^-4 M after 15 days by congo red dye-based crossed polarized optical microscopic analysis
[5] = biological target: Lysozyme C (Gallus gallus) (UniProt P00698); assay: Inhibition of hen egg white lysozyme fibrillization at 2 x 10^-4 M after 2 weeks by congo red dye-based UV/Vis spectroscopic analysis
[6] = biological target: Lysozyme C (Gallus gallus) (UniProt P00698); assay: Inhibition of beta-sheet aggregation of hen egg white lysozyme at 2 x 10^-4 M after 15 days by CD spectroscopic analysis
[7] = biological target: Lysozyme C (Gallus gallus) (UniProt P00698); assay: Inhibition of hen egg white lysozyme fibrillization assessed as diameter of granular aggregate at 2 x 10^-4 M after 15 days by atomic force microscopic analysis (reference value: 50 to 80 nm)
[8] = biological target: Lysozyme C (Gallus gallus) (UniProt P00698); assay: Binding affinity to hen egg white lysozyme at 2 x 10^-4 M by UV/Vis spectroscopic analysis
[9] = biological target: Lysozyme C (Gallus gallus) (UniProt P00698); assay: Binding affinity to hen egg white lysozyme assessed as formation of enzyme/compound complex formation at 2 x 10^-4 M by TCSPC spectroscopic analysis
[10] = biological target: Lysozyme C (Gallus gallus) (UniProt P00698); assay: Inhibition of hen egg white lysozyme fibrillization at 2 x 10^-4 M up to 100 hrs by Thioflavin T-based fluorescence assay

Lysozyme C (Gallus gallus), sequence (P00698 whole entry): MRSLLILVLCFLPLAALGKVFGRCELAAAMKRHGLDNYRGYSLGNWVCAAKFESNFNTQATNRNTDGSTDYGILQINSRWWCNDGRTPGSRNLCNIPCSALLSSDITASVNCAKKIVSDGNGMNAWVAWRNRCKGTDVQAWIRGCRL

Row | inhibition [1] | Activity [3] | inhibition [4] | inhibition [5] | inhibition [6] | Activity [7] [nm] | Activity [8] | Activity [9] | inhibition [10] | SMILES | Activity [2]
1 | Active | Active | Active | Active | Active | 100 | Active | Active | Active | CC(=O)N[C@@H](Cc1ccc(/N=N/c2cc(S(=O)(=O)O)ccc2N)cc1)C(=O)O | Non-toxic
2 | Active | Active | Active | Active | Active | 100 | Active | Active | Active | Nc1ccc(S(=O)(=O)O)cc1/N=N/c1ccc(C[C@H](NC(=O)C(F)(F)F)C(=O)O)cc1 | Non-toxic
